A short description of the assay: Effective concentration required for production of cGMP in Chinese hamster ovary cells expressing natriuretic peptide receptor A (NPR-A). The format is functional, cell-based.

Each structure is given as a SMILES string. pEC50: −log10 of the molar value.

As usually defined, the pEC50 is −log10 of the EC50, conventionally taken in molar units. A lower pEC50 goes with a large EC50.

Take `CC[C@H](C)[C@@H]1NC(=O)[C@@H](CCCN=C(N)N)NC(=O)[C@H](CC(=O)O)NC(=O)[C@@H](CCSC)NC(=O)[C@H](CCCN=C(N)N)NC(=O)CNC(=O)CNC(=O)[C@@H](Cc2ccccc2)NC(=O)[C@H](Cc2c[nH]cn2)NC(=O)[C@@H](NC(=O)[C@@H](N)CCSC)CSSC[C@H](C(=O)N[C@@H](Cc2ccc(O)cc2)C(=O)N[C@@H](CCCN=C(N)N)C(N)=O)NC(=O)[C@@H](CO)NC1=O` [MiniANP]: the pEC50 was 8.51.

These data come from ChEMBL document CHEMBL1148388, “Restriction of a peptide turn conformation and conformational analysis of guanidino group using arginine-proline fused amino acids: application to mini atrial natriuretic peptide on binding to the receptor” (J Med Chem, 2004).
